Structures can show the parent of a compound that is named as a salt. Where two headings read alike, the source gives them in different places.
How the values were obtained:
Na+ channels = experiment: 22Na+ influx into SK-N-SH neuroblastoma cells under veratridine stimulation; type: cell-based
[1] = test system: Chronic Hyperalgesia Induced by PGE2 in Rats; experiment: Analgesic activity on chronic hyperalgesia induced by PGE2 in rats (Randall and Selitto test); type: in vivo; conditions: Rattus norvegicus, sc, 0.5 h; Sprague-Dawley rats, 10 mg/kg s.c., 30 min before measuring the pain threshold, compared with vehicle controls
Experimental: Analgesic Activity on Chronic Hyperalgesia Induced by PGE2 in Rats
The test consists in determining the analgesic effect of the test compound in rats by the Randall and Selitto test, in which chronic hyperalgesia has been triggered by intraplantar injection of PGE2 over 4 days into a leg, according to a protocol adapted from Nakamura-Craig et al (Pain, 63: 33-37. 1995).
The study is carried out on batches of 120-140 g Sprague-Dawley rats to which 100 ng of PGE2 is administered in a volume of 100 μl by the intraplantar route, for 4 consecutive days twice a day; this causes chronic hyperalgesia in the leg from the 5th day, for at least one week. On the day of the test, in the morning, the threshold of reaction to pain is checked by the Randall and Selitto test, and animals whose threshold is ψ100 arbitrarily defined units are selected. In the afternoon, the measurement is repeated after prior administration by the s.c. route of a solution of the test compound; this administration is carried out 30 min before measuring the pain threshold. For each batch, the analgesic activity (%) is calculated from the means of the thresholds measured before and after treatment, as compared with that of the control animals, who received only the vehicle.

Na+ channel = conditions: rat cerebral cortex synaptosomes, 10 nM [3H]batrachotoxin, 90 min at 25° C.; read-out: [3H] BTX assay: Na+ channel binding Ki
[2] = human SK-N-SH cells, veratridine-induced influx, 10 min at 37° C.; read-out: 22Na influx IC50

Row | Compound | melting point | IC50 (Na+ channels; [2]) | inhibition in vivo at 10 mg/kg [1] | further results
1 | O=C1c2ccccc2CCC12CCNCC2 (as salt: hydrochloride) | 235 °C | – | – | –
2 | O=C1c2ccccc2CCC12CCN(CCc1ccccc1)CC2 (as salt: hydrochloride) | > 275 °C | – | – | –
3 | O=C1c2ccccc2CCC12CCN(CC1CC1)CC2 (as salt: hydrochloride) [Example 2, 1′-cyclopropylmethyl-3,4-Dihydro-1-oxospiro[naphthalene-2(1H),4′-piperidine]] | 243 °C | – | – | –
4 | O=C1c2ccccc2CCC12CCN(CC1CCC1)CC2 (as salt: hydrochloride) [Example 3, 1′-cyclobutylmethyl-3,4-Dihydro-1-oxospiro[naphthalene-2(1H),4′-piperidine]] | 235 °C | – | – | –
5 | O=C1c2ccccc2CCC12CCN(CC1CCCCC1)CC2 (as salt: hydrochloride) [Example 4, 1′-cyclohexylmethyl-3,4-Dihydro-1-oxospiro[naphthalene-2(1H),4′-piperidine]] | 265 °C | – | – | –
6 | O=C1c2ccccc2CCC12CCN(CCC1CC1)CC2 (as salt: hydrochloride) [Example 6, 1′-cyclopropylethyl-3,4-Dihydro-1-oxospiro[naphthalene-2(1H),4′-piperidine]] | 244 °C | – | – | –
7 | O=C1c2ccccc2CCC12CCN(C/C=C/c1ccccc1)CC2 (as salt: hydrochloride) [Example 7, 1′-cinnamyl-3,4-Dihydro-1-oxospiro[naphthalene-2(1H),4′-piperidine]] | 228 °C | – | – | –
8 | O=C1c2ccccc2CCC12CCN(CCC(c1ccccc1)c1ccccc1)CC2 (as salt: hydrochloride) [Example 8, 1′-(3,3-diphenylpropyl)-3,4-Dihydro-1-oxospiro[naphthalene-2(11H),4′-piperidine]] | 257 °C | – | – | –
9 | Cc1cc(C)c2c(c1)C(=O)C1(CC2)CCN(CC2CC2)CC1 (as salt: hydrochloride) [Example 9, 1′-(cyclopropylmethyl)-3,4-Dihydro-5,7-dimethyl-1-oxospiro[naphthalene-2(1H),4′-piperidine]] | > 260 °C | – | – | –
10 | COc1ccc2c(c1)CCC1(CCN(CC3CC3)CC1)C2=O (as salt: hydrochloride) [Example 10, 1′-(cyclopropylmethyl)-3,4-Dihydro-6-methoxy-1-oxospiro[naphthalene-2(1H),4′-piperidine]] | > 255 °C | – | – | –
11 | COc1cccc2c1CCC1(CCN(CC3CC3)CC1)C2=O (as salt: hydrochloride) [Example 11, 1′-(cyclopropylmethyl)-3,4-Dihydro-5-methoxy-1-oxospiro[naphthalene-2(1H),4′-piperidine]] | 244 °C | – | – | –
12 | O=C1c2ccccc2CCC12CCN(CC1CC1)CC2 [Example 2, 1′-cyclopropylmethyl-3,4-Dihydro-1-oxospiro[naphthalene-2(1H),4′-piperidine]] | – | 10.7 µM | 49% | –
13 | O=C1c2ccccc2CCC12CCN(CCC1CC1)CC2 [Example 6, 1′-cyclopropylethyl-3,4-Dihydro-1-oxospiro[naphthalene-2(1H),4′-piperidine]] | – | 3.4 µM | 67% | –
14 | O=C1c2ccccc2CCC12CCN(C/C=C/c1ccccc1)CC2 [Example 7, 1′-cinnamyl-3,4-Dihydro-1-oxospiro[naphthalene-2(1H),4′-piperidine]] | – | 0.94 µM | 57% | –
15 | O=C1c2ccccc2CCC12CCN(CCC(c1ccccc1)c1ccccc1)CC2 [Example 8, 1′-(3,3-diphenylpropyl)-3,4-Dihydro-1-oxospiro[naphthalene-2(11H),4′-piperidine]] | – | 0.97 µM | 47% | –
16 | COc1ccc2c(c1)CCC1(CCN(CC3CC3)CC1)C2=O [Example 10, 1′-(cyclopropylmethyl)-3,4-Dihydro-6-methoxy-1-oxospiro[naphthalene-2(1H),4′-piperidine]] | – | 30 µM | 100% | –
17 | O=C1c2ccccc2CCC12CCN(CCCc1ccccc1)CC2 [Example 33] | – | – | 81% | Ki (Na+ channel): 0.291 µM; IC50 (Na+ channels; read-out: 22Na influx IC50; human SK-N-SH cells, veratridine-induced influx, 10 min at 37° C.): 1.2 µM
18 | COc1cccc2c1CCC1(CCN(CC3CCC3)CC1)C2=O [Example 36] | – | 3.4 µM | 51% | Ki (Na+ channel): 0.475 µM
19 | COc1ccc2c(c1)CCC1(CCN(CCC3CC3)CC1)C2=O [Example 42] | – | 4.3 µM | 46% | –
20 | COc1ccc2c(c1)CCC1(CCN(CC3CCC3)CC1)C2=O [Example 43] | – | 6 µM | 39% | –
21 | COc1ccc2c(c1)CCC1(CCN(CCCc3ccccc3)CC1)C2=O [Example 47] | – | 0.6 µM | 66% | –
22 | COc1ccc2c(c1)C(=O)C1(CC2)CCN(CCC2CC2)CC1 [Example 49] | – | 7.6 µM | 38% | Ki (Na+ channel): 2.18 µM
23 | COc1ccc2c(c1)CCC1(CCNCC1)C2=O [Example 70, 3.4-Dihydro-6-methoxy-1-oxospiro[naphthalene-2(1H),4′-piperidine]] | – | – | 46% | –
